Usually EC50 stands for the concentration giving half of the maximal effect.

For this assay, the target named is T1, ΔF508-CFTR (Homo sapiens, UniProt P13569, DEL508-508).
T1 construct: expressed in transfected cells
In words: Membrane potential optical (FRET/VIPR) assay, identification of correction compounds. Conditions: Table 3, assay not given; for Emax: read-out: % Activity / % Efficacy (relative efficacy). It counts as cell-based. In outline:
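NIH3T3 mouse fibroblasts stably expressing ΔF508-CFTR were exposed to compound for 16 h at 37° C in serum-free medium, then loaded with DiSBAC2(3)/CC2-DMPE. After addition of 10 μM forskolin plus 20 μM genistein in Cl⁻-free gluconate bath (pH 7.4), depolarization from Cl⁻ efflux was read by FRET (VIPR II).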

Bounds are passed on as bounds.

T1 sequence (P13569 with tags, fused parts or gaps DEL508-508): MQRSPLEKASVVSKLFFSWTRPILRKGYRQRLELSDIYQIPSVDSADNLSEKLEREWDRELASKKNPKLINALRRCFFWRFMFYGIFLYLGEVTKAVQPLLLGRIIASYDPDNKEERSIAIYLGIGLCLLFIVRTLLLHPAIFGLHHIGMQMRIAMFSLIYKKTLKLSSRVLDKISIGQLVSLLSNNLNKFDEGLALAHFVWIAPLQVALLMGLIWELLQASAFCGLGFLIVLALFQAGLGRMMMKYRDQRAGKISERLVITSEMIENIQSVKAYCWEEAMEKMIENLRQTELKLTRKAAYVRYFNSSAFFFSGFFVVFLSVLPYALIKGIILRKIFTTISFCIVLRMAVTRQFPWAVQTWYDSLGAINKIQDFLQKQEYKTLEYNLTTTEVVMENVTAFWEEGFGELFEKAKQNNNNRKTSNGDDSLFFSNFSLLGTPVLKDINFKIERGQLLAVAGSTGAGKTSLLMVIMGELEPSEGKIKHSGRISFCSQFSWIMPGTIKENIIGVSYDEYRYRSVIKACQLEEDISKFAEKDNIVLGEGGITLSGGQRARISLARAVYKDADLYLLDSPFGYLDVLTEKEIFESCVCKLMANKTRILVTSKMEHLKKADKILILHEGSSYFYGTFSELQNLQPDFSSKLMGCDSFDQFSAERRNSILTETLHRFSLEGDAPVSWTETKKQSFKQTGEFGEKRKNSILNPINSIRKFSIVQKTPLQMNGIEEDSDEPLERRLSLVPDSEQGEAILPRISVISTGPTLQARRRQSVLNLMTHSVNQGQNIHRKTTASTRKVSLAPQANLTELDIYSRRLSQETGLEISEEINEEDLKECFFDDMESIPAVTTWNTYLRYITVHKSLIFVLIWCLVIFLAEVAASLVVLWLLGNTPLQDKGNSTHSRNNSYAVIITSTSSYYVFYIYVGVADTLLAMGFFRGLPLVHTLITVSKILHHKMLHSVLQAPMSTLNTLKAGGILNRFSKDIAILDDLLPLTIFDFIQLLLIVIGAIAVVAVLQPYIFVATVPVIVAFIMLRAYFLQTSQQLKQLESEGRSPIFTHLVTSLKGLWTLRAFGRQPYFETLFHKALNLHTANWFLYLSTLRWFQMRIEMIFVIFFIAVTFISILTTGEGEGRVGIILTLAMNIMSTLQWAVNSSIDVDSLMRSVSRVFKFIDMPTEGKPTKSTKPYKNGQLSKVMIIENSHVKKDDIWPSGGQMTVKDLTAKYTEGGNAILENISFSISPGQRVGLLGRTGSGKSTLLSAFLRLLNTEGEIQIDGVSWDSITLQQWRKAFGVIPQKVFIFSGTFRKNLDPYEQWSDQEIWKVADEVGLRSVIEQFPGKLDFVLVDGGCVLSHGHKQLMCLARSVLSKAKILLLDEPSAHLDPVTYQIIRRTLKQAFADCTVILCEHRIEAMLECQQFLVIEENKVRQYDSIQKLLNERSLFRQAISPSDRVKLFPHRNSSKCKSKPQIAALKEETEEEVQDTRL

As for `CCN(CC)C(Cc1ccccc1Cl)c1cnc(NC(=O)C2(c3ccc4c(c3)OCO4)CC2)s1` (centres unmarked) [Example 459], the EC50 is below 10 µM and the Emax was above 100%.

Turning to `O=C(Nc1ncc(C(Cc2ccccc2Cl)N2CCC(O)CC2)s1)C1(c2ccc3c(c2)OCO3)CC1` (centres unmarked) [Example 460], the concentration for a half-maximal effect (EC50) was below 10 µM and the Emax is above 100%.

Take `O=C(Nc1ncc(C(Cc2ccccc2Cl)N2CCOCC2)s1)C1(c2ccc3c(c2)OCO3)CC1` (centres unmarked) [Example 461]: the concentration giving a half-maximal response (EC50) is below 10 µM and the Emax was above 100%.

For the molecule `O=C(Nc1ncc(C(Cc2ccccc2Cl)N2CC[C@@H](O)C2)s1)C1(c2ccc3c(c2)OCO3)CC1` (some centres unmarked) [Example 462], the 50% effective concentration (EC50) was below 10 µM and the Emax is above 100%.

Consider `CCOc1ccccc1C(c1cnc(NC(=O)C2(c3ccc4c(c3)OCO4)CC2)s1)N1CCCC1` (centres unmarked) [Example 463], for which the concentration for a half-maximal effect (EC50) was below 10 µM and the Emax was 25 to 100%.

`O=C(Nc1ncc(C(c2ccccc2C(F)(F)F)N2CC[C@@H](O)C2)s1)C1(c2ccc3c(c2)OCO3)CC1` (some centres unmarked) [Example 464]: the concentration giving a half-maximal response (EC50) is below 10 µM and the Emax was above 100%.

`O=C(Nc1ncc(C(c2ccccc2F)N2CCCC2)s1)C1(c2ccc3c(c2)OCO3)CC1` (centres unmarked) [Example 465]: the concentration giving a half-maximal response (EC50) was below 10 µM and the Emax was above 100%.

Regarding `Cc1ccccc1C(c1cnc(NC(=O)C2(c3ccc4c(c3)OCO4)CC2)s1)N1CC[C@@H](O)C1` (some centres unmarked) [Example 466], the EC50 lay in the range of 10 to 25 µM and the Emax is above 100%.

For `O=C(Nc1ncc(C(c2ccc(Cl)cc2Cl)N2CCCC2)s1)C1(c2ccc3c(c2)OCO3)CC1` (centres unmarked) [Example 467], the half-maximal effective concentration (EC50) is below 10 µM and the Emax is above 100%.

As for `O=C(Nc1ncc(C(c2ccccc2C(F)(F)F)N2CCCC2)s1)C1(c2ccc3c(c2)OCO3)CC1` (centres unmarked) [Example 468], the half-maximal effective concentration (EC50) is below 10 µM and the Emax is above 100%.

For `Cc1ccccc1C(c1cnc(NC(=O)C2(c3ccc4c(c3)OCO4)CC2)s1)N1CCCC1` (centres unmarked) [Example 469], the 50% effective concentration (EC50) is below 10 µM and the Emax is above 100%.

Turning to `O=C(Nc1ncc(C(c2ccc(Cl)cc2Cl)N2CC[C@@H](O)C2)s1)C1(c2ccc3c(c2)OCO3)CC1` (some centres unmarked) [Example 470], the EC50 is below 10 µM and the Emax was above 100%.

For `O=C(Nc1ncc(C(c2cc(F)ccc2F)N2CCCC2)s1)C1(c2ccc3c(c2)OCO3)CC1` (centres unmarked) [Example 471], the EC50 is below 10 µM and the Emax is above 100%.

Consider `O=C(Nc1ncc(C(c2ccccc2F)N2CC[C@@H](O)C2)s1)C1(c2ccc3c(c2)OCO3)CC1` (some centres unmarked) [Example 472], for which the EC50 is below 10 µM and the Emax is above 100%.

With `CCOc1ccccc1C(c1cnc(NC(=O)C2(c3ccc4c(c3)OCO4)CC2)s1)N1CC[C@@H](O)C1` (some centres unmarked) [Example 473], the EC50 is below 10 µM and the Emax was above 100%.

Consider `O=C(Nc1ncc(C(c2cc(F)ccc2F)N2CC[C@@H](O)C2)s1)C1(c2ccc3c(c2)OCO3)CC1` (some centres unmarked) [Example 474], for which the EC50 was below 10 µM and the Emax is above 100%.

Turning to `NC(c1cnc(NC(=O)C2(c3ccc4c(c3)OCO4)CC2)s1)c1ccccc1Cl` (centres unmarked) [Example 475], the EC50 is below 10 µM and the Emax was 25 to 100%.

On to `CCOc1ccccc1C(NC(CO)CC(C)C)c1cnc(NC(=O)C2(c3ccc4c(c3)OCO4)CC2)s1` (centres unmarked) [Example 476], for which the Emax was above 100%.

For the molecule `CCOc1ccccc1C(N[C@@H](CO)CC(C)C)c1cnc(NC(=O)C2(c3ccc4c(c3)OCO4)CC2)s1` (some centres unmarked) [Example 476], the EC50 was below 10 µM.

`Cc1ccccc1C(N[C@@H](CO)CC(C)C)c1cnc(NC(=O)C2(c3ccc4c(c3)OCO4)CC2)s1` (some centres unmarked) [Example 477]: the EC50 is below 10 µM and the Emax is above 100%.

In the case of `CCOc1ccccc1C(NC(CO)C(C)C)c1cnc(NC(=O)C2(c3ccc4c(c3)OCO4)CC2)s1` (centres unmarked) [Example 478], the Emax was above 100%.

As to `CCOc1ccccc1C(N[C@@H](CO)C(C)C)c1cnc(NC(=O)C2(c3ccc4c(c3)OCO4)CC2)s1` (some centres unmarked) [Example 478], the EC50 was below 10 µM.

With `Cc1ccccc1C(N[C@@H](CO)C(C)C)c1cnc(NC(=O)C2(c3ccc4c(c3)OCO4)CC2)s1` (some centres unmarked) [Example 479], the concentration giving a half-maximal response (EC50) was below 10 µM and the Emax is above 100%.

On to `CC(C)C[C@H](CO)NC(c1cnc(NC(=O)C2(c3ccc4c(c3)OCO4)CC2)s1)c1cc(F)ccc1F` (some centres unmarked) [Example 480], for which the EC50 is below 10 µM and the Emax is above 100%.

On to `CC(C)[C@H](CO)NC(c1cnc(NC(=O)C2(c3ccc4c(c3)OCO4)CC2)s1)c1ccccc1C(F)(F)F` (some centres unmarked) [Example 481], for which the concentration for a half-maximal effect (EC50) was below 10 µM and the Emax is above 100%.

`CC(C)C[C@H](CO)NC(c1cnc(NC(=O)C2(c3ccc4c(c3)OCO4)CC2)s1)c1ccccc1F` (some centres unmarked) [Example 482]: the EC50 is below 10 µM and the Emax is above 100%.

Consider `CC(C)[C@H](CO)NC(c1cnc(NC(=O)C2(c3ccc4c(c3)OCO4)CC2)s1)c1ccccc1F` (some centres unmarked) [Example 483], for which the concentration giving a half-maximal response (EC50) is below 10 µM and the Emax was above 100%.

In the case of `CC(C)[C@H](CO)NC(c1cnc(NC(=O)C2(c3ccc4c(c3)OCO4)CC2)s1)c1cc(F)ccc1F` (some centres unmarked) [Example 484], the EC50 was below 10 µM and the Emax is above 100%.

As to `CCC[C@@H](CO)NC(c1cnc(NC(=O)C2(c3ccc4c(c3)OCO4)CC2)s1)c1ccccc1Cl` (some centres unmarked) [Example 485], the EC50 was below 10 µM and the Emax was above 100%.

With `CCC(CO)NC(c1cnc(NC(=O)C2(c3ccc4c(c3)OCO4)CC2)s1)c1ccccc1Cl` (centres unmarked) [Example 486], the concentration for a half-maximal effect (EC50) was below 10 µM and the Emax was above 100%.

On to `C[C@@H](O)CNC(c1cnc(NC(=O)C2(c3ccc4c(c3)OCO4)CC2)s1)c1ccccc1Cl` (some centres unmarked) [Example 487], for which the half-maximal effective concentration (EC50) is below 10 µM and the Emax was above 100%.

With `CC(C)(C)[C@H](CO)NC(c1cnc(NC(=O)C2(c3ccc4c(c3)OCO4)CC2)s1)c1ccccc1Cl` (some centres unmarked) [Example 488], the EC50 was below 10 µM and the Emax is above 100%.

For the molecule `CCC[C@H](CO)NC(c1cnc(NC(=O)C2(c3ccc4c(c3)OCO4)CC2)s1)c1ccccc1Cl` (some centres unmarked) [Example 489], the EC50 was below 10 µM and the Emax is above 100%.

As to `CC(C)(C)[C@@H](CO)NC(c1cnc(NC(=O)C2(c3ccc4c(c3)OCO4)CC2)s1)c1ccccc1Cl` (some centres unmarked) [Example 490], the EC50 is 10 to 25 µM and the Emax was in the range of 25 to 100%.

For `CCCC[C@@H](CO)NC(c1cnc(NC(=O)C2(c3ccc4c(c3)OCO4)CC2)s1)c1ccccc1Cl` (some centres unmarked) [Example 491], the EC50 was below 10 µM and the Emax was above 100%.

For the molecule `O=C(Nc1ncc(C(c2ccccc2Cl)N2CC[C@@H](O)C2)s1)C1(c2ccc3c(c2)OC(F)(F)O3)CC1` (some centres unmarked) [Example 492], the concentration giving a half-maximal response (EC50) is below 10 µM and the Emax was above 100%.

As for `CC(C)[C@H](CO)NC(c1ccc2c(c1)OC(F)(F)O2)c1cnc(NC(=O)C2(c3ccc4c(c3)OCO4)CC2)s1` (some centres unmarked) [Example 493], the concentration giving a half-maximal response (EC50) was below 10 µM and the Emax was above 100%.

For the molecule `O=C(Nc1ncc(C(c2cccc3c2OC(F)(F)O3)N2CCCC2)s1)C1(c2ccc3c(c2)OCO3)CC1` (centres unmarked) [Example 494], the EC50 was below 10 µM and the Emax lay in the range of 25 to 100%.

For the molecule `CC(C)C[C@@H](CO)NC(c1cnc(NC(=O)C2(c3ccc4c(c3)OCO4)CC2)s1)c1ccccc1Cl` (some centres unmarked) [Example 495], the EC50 is below 10 µM and the Emax lay in the range of 25 to 100%.

Turning to `O=C(Nc1ncc(C(c2cccc3c2OC(F)(F)O3)N2CC[C@@H](O)C2)s1)C1(c2ccc3c(c2)OCO3)CC1` (some centres unmarked) [Example 496], the concentration giving a half-maximal response (EC50) is below 10 µM and the Emax is 25 to 100%.

Turning to `CCCC[C@H](CO)NC(c1cnc(NC(=O)C2(c3ccc4c(c3)OCO4)CC2)s1)c1ccccc1Cl` (some centres unmarked) [Example 497], the EC50 was below 10 µM and the Emax is above 100%.

For `CC(C)CC(CO)NC(c1cnc(NC(=O)C2(c3ccc4c(c3)OCO4)CC2)s1)c1cccc2c1OC(F)(F)O2` (centres unmarked) [Example 498], the Emax is above 100%.

As to `CC(C)C[C@H](CO)NC(c1cnc(NC(=O)C2(c3ccc4c(c3)OCO4)CC2)s1)c1cccc2c1OC(F)(F)O2` (some centres unmarked) [Example 498], the EC50 is below 10 µM.

These data come from patent publication US7977322B2 (Vertex Pharmaceuticals Incorporated, priority 2004, dated 2011).
